The target in experiment [1] is T1, Human immunodeficiency virus type 1 integrase (Human immunodeficiency virus 1, UniProt Q7ZJM1). Nature of the experiment: Inhibition of Human immunodeficiency virus 1 integrase-mediated 3'-processing after 30 mins by polyacrylamide gel electrophoresis.
The target of experiment [2] is T1, Human immunodeficiency virus type 1 integrase. Briefly: Inhibition of Human immunodeficiency virus 1 integrase strand transfer activity after 30 mins by polyacrylamide gel electrophoresis.
The next experiment relates to CCRF-CEM. Nature of the experiment: Cytotoxicity against human CEM cells after 6 days by trypan blue assay. Conditions: 144 h.
The next experiment relates to PBMC. Briefly: Cytotoxicity against human PBMC after 6 days by trypan blue assay. As to conditions: 144 h.
For experiment [3], the system named is Human immunodeficiency virus 1. Briefly: Antiviral activity against Human immunodeficiency virus 1 LAI infected in human PBMC assessed as inhibition of viral replication after 5 days by reverse transcriptase assay. Type of experiment: functional, organism-based. Conditions: 120 h.

T1 sequence (Q7ZJM1 whole entry): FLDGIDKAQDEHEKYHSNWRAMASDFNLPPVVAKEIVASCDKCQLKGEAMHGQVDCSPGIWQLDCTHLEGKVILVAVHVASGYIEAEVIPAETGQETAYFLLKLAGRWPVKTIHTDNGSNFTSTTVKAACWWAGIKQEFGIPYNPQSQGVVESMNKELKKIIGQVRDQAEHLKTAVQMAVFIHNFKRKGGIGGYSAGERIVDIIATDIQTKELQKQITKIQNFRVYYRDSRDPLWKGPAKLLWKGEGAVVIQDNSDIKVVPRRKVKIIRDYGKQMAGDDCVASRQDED

What is called IC50 is the concentration that gives 50% inhibition. Read a low IC50 as greater potency. With `COc1ccc(/C=C/C(=O)c2cc(Br)cc(C(=O)O)c2O)c(OC)c1OC`, the IC50 in experiment [1] stood at 85 µM; in experiment [2], 51 µM.

For the compound `O=C(O)c1cc(Br)cc(C(=O)/C=C/c2cc(Cl)ccc2Cl)c1O`, the IC50 is 47 µM in experiment [1] and 18 µM in experiment [2].

On to `O=C(O)c1cc(Br)cc(C(=O)/C=C/c2c(Cl)cccc2Cl)c1O`, for which the IC50 in experiment [1] came to 52 µM; in experiment [2], 16 µM.

Consider `O=C(O)c1cc(Br)cc(C(=O)/C=C/c2ccc(Cl)c(Cl)c2)c1O`, for which the IC50 in experiment [1] turned out to be 27 µM; in experiment [2], 14 µM.

Regarding `O=C(O)c1cc(Br)cc(C(=O)/C=C/c2cc(Cl)cc(Cl)c2Cl)c1O`, the IC50 in experiment [1] came to 20 µM; in experiment [2], 13 µM.

Usually EC50 stands for the concentration needed to bring the measured effect to its halfway point. In general, EC90 refers to the concentration at which the effect reaches the 90% level. Regarding `O=C(O)c1cc(Br)cc(C(=O)/C=C/c2c(Cl)ccc(Cl)c2Cl)c1O`, the IC50 was 23 µM in experiment [1], 19 µM in the experiment on CCRF-CEM, 22.7 µM with PBMC and below 3.7 µM in experiment [2]. Further, the EC50 in experiment [3] stood at 7.3 µM. The EC90 in experiment [3] was 20.3 µM.

In the case of `O=C(O)c1cc(Cl)cc(C(=O)/C=C/c2ccc(Cl)cc2)c1O`, the results for the IC50 in experiment [1] and in experiment [2] were 85 µM and 53 µM, respectively.

As for `O=C(O)c1cc(Cl)cc(C(=O)/C=C/c2ccc(Cl)cc2Cl)c1O`, the IC50 in experiment [1] and in experiment [2] was above 100 µM each time.

With `O=C(O)c1cc(Cl)cc(C(=O)/C=C/c2cccc(Cl)c2Cl)c1O`, the IC50 is 100 µM in experiment [1] and 92 µM in experiment [2].

Regarding `O=C(O)c1cc(Cl)cc(C(=O)/C=C/c2cc(Cl)ccc2Cl)c1O`, the IC50 in experiment [1] came out at 75 µM; in experiment [2], 25 µM.

On to `O=C(O)c1cc(Cl)cc(C(=O)/C=C/c2cc(Cl)cc(Cl)c2Cl)c1O`, for which the IC50 in experiment [1] came to 55 µM; in experiment [2] it was 17 µM.

As for `O=C(O)c1cc(Cl)cc(C(=O)/C=C/c2c(Cl)ccc(Cl)c2Cl)c1O`, the IC50 in experiment [1] stood at 77 µM; in experiment [2] it was 30 µM.

As to `O=C(O)c1cc(Cl)cc(C(=O)/C=C/c2ccc(Cl)c(Cl)c2)c1O`, the IC50 in experiment [1] amounted to 87 µM; in experiment [2], 41 µM.

`O=C(O)c1cc(F)cc(C(=O)/C=C/c2ccc(Cl)cc2)c1O`: the IC50 is 36 µM in experiment [1] and 17 µM in experiment [2].

In the case of `O=C(O)c1cc(F)cc(C(=O)/C=C/c2ccc(Cl)cc2Cl)c1O`, the IC50 in experiment [1] was 52 µM; in experiment [2], 24 µM.

With `O=C(O)c1cc(F)cc(C(=O)/C=C/c2cccc(Cl)c2Cl)c1O`, the IC50 in experiment [1] is 55 µM; in experiment [2], 30 µM.

`O=C(O)c1cc(F)cc(C(=O)/C=C/c2cc(Cl)ccc2Cl)c1O`: the IC50 is 50 µM in experiment [1] and 29 µM in experiment [2].

Consider `O=C(O)c1cc(F)cc(C(=O)/C=C/c2cc(Cl)cc(Cl)c2Cl)c1O`, for which the IC50 in experiment [1] turned out to be 33 µM; in experiment [2], 15 µM.

Regarding `O=C(O)c1cc(F)cc(C(=O)/C=C/c2c(Cl)ccc(Cl)c2Cl)c1O`, the IC50 in experiment [1] was 82 µM; in experiment [2], 39 µM.

Consider `Cc1cc(C)cc(/C=C/C(=O)c2cc(Br)cc(C(=O)O)c2O)c1`, for which the IC50 in experiment [1] is above 100 µM; in experiment [2] it was 58 µM.

`COc1ccc(/C=C/C(=O)c2cc(Br)cc(C(=O)O)c2O)c(Cl)c1OC`: the IC50 in experiment [1] was above 100 µM; in experiment [2], 76 µM.

On to `COc1cc(F)c(/C=C/C(=O)c2cc(Br)cc(C(=O)O)c2O)cc1OC`, for which the IC50 is above 100 µM in experiment [1] and 76 µM in experiment [2].

Take `O=C(O)c1cc(Br)cc(C(=O)/C=C/c2ccccc2OCc2ccccc2)c1O`: the values for the IC50 in experiment [1] and in experiment [2] were 21 µM and 9 µM, respectively.

Regarding `O=C(O)c1cc(Br)cc(C(=O)/C=C/c2cccc(Oc3ccc(Cl)cc3)c2)c1O`, the IC50 in experiment [1] was 25 µM; in experiment [2], 18 µM.

Regarding `O=C(O)c1cc(Br)cc(C(=O)/C=C/c2ccc(Oc3ccc(Cl)cc3)cc2)c1O`, the figures for the IC50 in experiment [1] and in experiment [2] were 22 µM and 16 µM, respectively.

For `O=C(O)c1cc(Br)cc(C(=O)/C=C/c2ccsc2)c1O`, the figures for the half-inhibitory concentration (IC50) in experiment [1] and in experiment [2] were 30 µM and 18 µM, respectively.

`COc1ccc(/C=C/C(=O)c2cc(Br)cc(C(=O)O)c2O)cc1OC1CCCC1`: the values for the IC50 in experiment [1] and in experiment [2] were 100 µM and 55 µM, respectively.

With `CCOc1ccc2ccccc2c1/C=C/C(=O)c1cc(Br)cc(C(=O)O)c1O`, the IC50 worked out at 92 µM in experiment [1] and 46 µM in experiment [2].

Take `COc1cccc2c(/C=C/C(=O)c3cc(Br)cc(C(=O)O)c3O)cccc12`: half-maximal inhibition in experiment [1] (IC50) required 54 µM.

Regarding `O=C(O)c1cc(Br)cc(C(=O)/C=C/c2ccc3sccc3c2)c1O`, the IC50 is 23 µM in experiment [1], 20.7 µM with CCRF-CEM, 39.1 µM with PBMC and 11 µM in experiment [2]. Moreover, the EC50 in experiment [3] stood at 10.1 µM. Moreover, the EC90 in experiment [3] stood at 24.3 µM.

Consider `O=C(O)c1cc(Br)cc(C(=O)/C=C/c2ccccc2-c2ccco2)c1O`, for which the IC50 in experiment [1] is above 100 µM; in experiment [2], 16 µM.

With `O=C(O)c1cc(Br)cc(C(=O)/C=C/c2cc3c(cc2Cl)OCO3)c1O`, the IC50 in experiment [1] was determined as 79 µM; in experiment [2], 63 µM.

Turning to `O=C(O)c1cc(Br)cc(C(=O)/C=C/c2cccc(OC(F)(F)F)c2)c1O`, the half-inhibitory concentration (IC50) in experiment [1] was above 100 µM; in experiment [2], 52 µM.

For the compound `O=C(O)c1cc(Br)cc(C(=O)/C=C/c2cccc([N+](=O)[O-])c2)c1O`, the half-inhibitory concentration (IC50) in experiment [1] is 49 µM; in experiment [2], 32 µM.

In the case of `O=C(O)c1cc(Br)cc(C(=O)/C=C/c2cccc(Br)c2)c1O`, the IC50 stood at 19 µM in experiment [1] and 18 µM in experiment [2].

Consider `O=C(O)c1cc(Br)cc(C(=O)/C=C/c2cccc(F)c2)c1O`, for which the IC50 is 71 µM in experiment [1] and 59 µM in experiment [2].

As for `N#Cc1cc(Br)cc(C(=O)/C=C/c2c(Cl)ccc(Cl)c2Cl)c1O`, the IC50 in experiment [1] was above 100 µM; in experiment [2], 44 µM.

Consider `Cc1cc(C(=O)O)c(O)c(C(=O)/C=C/c2c(Cl)ccc(Cl)c2Cl)c1`, for which the IC50 is above 100 µM in experiment [1] and 50 µM in experiment [2].

`O=C(/C=C/c1cc(Br)cc([N+](=O)[O-])c1O)c1cc(Cl)cc(Cl)c1Cl` registered an IC50 in experiment [1] above 333 µM.

For the compound `O=Cc1cc(Br)cc(C(=O)NCc2ccc(F)cc2)c1O`, the IC50 is above 100 µM in experiment [1], 40.2 µM with CCRF-CEM, 44 µM in the experiment on PBMC and 8 µM in experiment [2]. Further, the EC50 in experiment [3] worked out at 30.8 µM. Moreover, the EC90 in experiment [3] came out at 52.7 µM.

Take `O=C(O)c1cc(F)cc(C(=O)CCc2cc(Cl)ccc2Cl)c1O`: the IC50 was above 100 µM in experiment [1] and 57 µM in experiment [2].

Take `O=C(O)c1cc(Br)cc(C(=O)NCc2ccc(F)cc2)c1O`: the IC50 in experiment [1] was above 100 µM; in experiment [2], 15 µM.

On to `Cc1cccc(C(=O)NCc2ccc(F)cc2)c1O`, for which the IC50 in experiment [1] and in experiment [2] was above 100 µM each time.

Take `O=C(NCc1ccc(F)cc1)c1cc(Br)ccc1O`: the IC50 in experiment [1] and in experiment [2] was above 100 µM in each case.

For `O=C(O)c1cc(Br)cc(C(=O)/C=C/c2ccccc2)c1O`, the IC50 in experiment [1] turned out to be 75 µM; in experiment [2], 25 µM.

Turning to `O=C(O)c1cc(Br)cc(C(=O)/C=C/c2ccccc2Cl)c1O`, the values for the IC50 in experiment [1] and in experiment [2] were 52 µM and 14 µM, respectively.

Turning to `O=C(O)c1cc(Br)cc(C(=O)/C=C/c2ccccc2F)c1O`, the IC50 in experiment [1] came to 74 µM; in experiment [2] it was 32 µM.

As to `O=C(O)c1cc(Br)cc(C(=O)/C=C/c2cccc(Cl)c2)c1O`, the IC50 in experiment [1] amounted to 45 µM; in experiment [2], 9 µM.

Regarding `O=C(O)c1cc(Br)cc(C(=O)/C=C/c2ccc(Cl)cc2)c1O`, the IC50 in experiment [1] worked out at 81 µM; in experiment [2] it was 12 µM.

As to `O=C(O)c1cc(Br)cc(C(=O)/C=C/c2ccc(Br)cc2)c1O`, the IC50 in experiment [1] was found to be 11 µM; in the experiment on CCRF-CEM, 27.5 µM; with PBMC it was 24.4 µM; in experiment [2], 5 µM. In addition, in experiment [3], the EC50 turned out to be 8.7 µM. Besides, the EC90 in experiment [3] was 21 µM.

For `O=C(O)c1cc(Br)cc(C(=O)/C=C/c2ccc(I)cc2)c1O`, the values for the IC50 in experiment [1] and in experiment [2] were 69 µM and 35 µM, respectively.

On to `O=C(O)c1cc(Br)cc(C(=O)/C=C/c2ccc(Cl)cc2Cl)c1O`, for which the IC50 was 28 µM in experiment [1], 23.8 µM in the experiment on CCRF-CEM, 22.1 µM in the experiment with PBMC and 7 µM in experiment [2]. Moreover, the EC50 in experiment [3] was determined as 13.9 µM. The EC90 in experiment [3] was 26 µM.

Turning to `O=C(O)c1cc(Br)cc(C(=O)/C=C/c2cccc(Cl)c2Cl)c1O`, the IC50 in experiment [1] amounted to 58 µM; in experiment [2] it was 19 µM.

In the case of `COc1cccc(/C=C/C(=O)c2cc(Br)cc(C(=O)O)c2O)c1OC`, the figures for the IC50 in experiment [1] and in experiment [2] were 62 µM and 34 µM, respectively.

`Cc1cn([C@H]2C[C@H](N=[N+]=[N-])[C@@H](CO)O2)c(=O)[nH]c1=O` [ZIDOVUDINE] returned an IC50 in the experiment with CCRF-CEM of 56.1 µM. Further, in the experiment on PBMC, the IC50 was above 100 µM. Further, in experiment [3], the EC50 is 0.0025 µM and the EC90 was 0.01 µM.

Values taken from ChEMBL document CHEMBL1681786, “Synthesis, biological evaluation and 3D-QSAR studies of 3-keto salicylic acid chalcones and related amides as novel HIV-1 integrase inhibitors” (Bioorg Med Chem, 2011).
